Test results from ChEMBL document CHEMBL5252574, “α-Synuclein Aggregation Inhibitory Procerolides and Diphenylalkanes from the Ascidian Polycarpa procera” (J Nat Prod, 2023).
Calls of active or inactive are those of the source. No cut-off for these calls is given here.

Key:
[1] = target: Alpha-synuclein (Homo sapiens) (UniProt P37840); test: Inhibition of human alpha-syn expressed in Escherichia coli BL21 (DE3) cells aggregation incubated for 36 hrs by ThT dye based fluorescence assay
Pseudomonas aeruginosa = test: Antibacterial activity against Pseudomonas aeruginosa ATCC 27853 incubated for 18 hrs by microdilution method; type: functional, organism-based
Staphylococcus aureus [2] = test: Antibacterial activity against methicillin- resistant Staphylococcus aureus ATCC 43300 incubated for 18 hrs by microdilution method; type: functional, organism-based
Staphylococcus aureus [3] = test: Antibacterial activity against methicillin-susceptible Staphylococcus aureus ATCC 25923 incubated for 18 hrs by microdilution method; type: functional, organism-based

In the case of `CCOC(=O)C1(Cc2ccc(OC)cc2)OC(=O)C(O)=C1c1ccc(OC)cc1` (configuration not stated), the inhibition [1] was “inactive”.

With `CCOC(=O)C1(Cc2ccc(C)cc2)OC(=O)C(O)=C1c1ccc(C)cc1` (configuration not stated) the inhibition [1] was “inactive”.

With `CCOC(=O)C1(Cc2cccc(OC)c2)OC(=O)C(O)=C1c1cccc(OC)c1` (configuration not stated) the inhibition [1] was “inactive”.

`CCOC(=O)C1(Cc2ccc(OC)cc2)OC(=O)C(O)=C1c1ccccc1` (configuration not stated) was tested, and the inhibition [1] was “inactive”.

In the case of `COC1=C(c2cc(Br)c(O)c(Br)c2)[C@H](Cc2cc(Br)c(OC)c(Br)c2)OC1=O`, the Activity (Pseudomonas aeruginosa) was “inactive”, the Activity (Staphylococcus aureus [2]) was “inactive” and the Activity (Staphylococcus aureus [3]) was “inactive”.

`COc1ccc(C[C@H](O)C(=O)c2cc(Br)c(O)c(Br)c2)cc1Br` was tested, and the Activity (Pseudomonas aeruginosa) was “inactive”, the Activity (Staphylococcus aureus [2]) was “inactive” and the Activity (Staphylococcus aureus [3]) was “inactive”.

With `CCOC(=O)C1(Cc2ccc(Cl)cc2)OC(=O)C(O)=C1c1ccc(Cl)cc1` (configuration not stated) the inhibition [1] was “inactive”.

With `COC1=C(c2cc(Br)c(O)c(Br)c2)[C@H](Cc2ccc(OC)c(Br)c2)OC1=O` the Activity (Pseudomonas aeruginosa) was “inactive”, the Activity (Staphylococcus aureus [2]) was “inactive” and the Activity (Staphylococcus aureus [3]) was “inactive”.

With `CCOC(=O)C1(Cc2ccccc2)OC(=O)C(O)=C1c1ccc(OC)cc1` (configuration not stated) the inhibition [1] was “inactive”.

In the case of `CCCC(C)CC1(C(=O)OCC)OC(=O)C(O)=C1c1ccc(OC)cc1` (configuration not stated), the inhibition [1] was “inactive”.

`CCOC(=O)C1(Cc2ccccc2)OC(=O)C(O)=C1c1ccccc1` (configuration not stated) was tested, and the inhibition [1] was “inactive”.
